# Test results reported in patent US20230139171A1 (SITA Information Networking Computing UK Limited, priority 2019, published 2023).
# pIC50: −log10 of the molar value.
# What was measured:
# Assay type in all cases: cell-based
# [1] = biological target: T1, human TLR8 (Homo sapiens, UniProt Q9NR97); assay: TLR8 inhibition reporter assay (HEK-Blue cells, SEAP reporter, R848 stimulation); details: HEK-Blue cells overexpressing human TLR8, SEAP reporter, R848 15.9 μM; read-out: TLR8 IC50
# T1 construct: host or cells: HEK-Blue cells
# T1 sequence (Q9NR97 27-1041): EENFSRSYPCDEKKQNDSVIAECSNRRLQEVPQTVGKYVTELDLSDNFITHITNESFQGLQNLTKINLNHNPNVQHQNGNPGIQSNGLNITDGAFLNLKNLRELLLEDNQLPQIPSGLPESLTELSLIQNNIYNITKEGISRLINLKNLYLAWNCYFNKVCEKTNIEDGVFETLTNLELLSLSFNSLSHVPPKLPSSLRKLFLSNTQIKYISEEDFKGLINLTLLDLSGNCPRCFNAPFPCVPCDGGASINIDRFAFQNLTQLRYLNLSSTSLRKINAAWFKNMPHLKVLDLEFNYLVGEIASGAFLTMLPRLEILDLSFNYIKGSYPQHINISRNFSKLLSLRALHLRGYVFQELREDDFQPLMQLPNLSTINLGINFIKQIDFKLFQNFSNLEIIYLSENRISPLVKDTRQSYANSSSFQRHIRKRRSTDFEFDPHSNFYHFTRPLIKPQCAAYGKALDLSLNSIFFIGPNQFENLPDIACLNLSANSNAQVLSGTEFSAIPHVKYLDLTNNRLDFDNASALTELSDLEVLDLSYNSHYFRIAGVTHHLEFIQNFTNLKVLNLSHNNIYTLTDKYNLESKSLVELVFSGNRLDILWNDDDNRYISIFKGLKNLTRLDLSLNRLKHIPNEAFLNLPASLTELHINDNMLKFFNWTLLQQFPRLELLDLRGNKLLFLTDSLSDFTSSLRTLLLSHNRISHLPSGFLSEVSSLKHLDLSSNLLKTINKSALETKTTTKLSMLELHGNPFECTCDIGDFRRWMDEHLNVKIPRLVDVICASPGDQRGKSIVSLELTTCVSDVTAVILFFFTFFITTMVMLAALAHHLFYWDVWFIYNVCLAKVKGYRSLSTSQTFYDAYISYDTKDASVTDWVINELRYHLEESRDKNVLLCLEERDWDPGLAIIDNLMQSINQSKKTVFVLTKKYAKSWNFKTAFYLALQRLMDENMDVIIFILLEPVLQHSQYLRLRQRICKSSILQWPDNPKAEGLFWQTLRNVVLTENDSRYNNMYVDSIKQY
# Outline: (§1)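 HEK-Blue cells overexpressing human TLR7, TLR8 or TLR9 carry a SEAP reporter driven by NF-κB/AP-1 sites. Compounds (0.05 nM–50 μM) were preincubated 30 min at room temperature, then cells were stimulated with gardiquimod 7.5 μM (TLR7), R848 15.9 μM (TLR8) or ODN2006 5 nM (TLR9) for 22 h at 37 °C.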
# [2] = biological target: T2, human TLR7 (Homo sapiens, UniProt Q9NYK1); assay: TLR7 inhibition reporter assay (HEK-Blue cells, SEAP reporter, gardiquimod stimulation); details: HEK-Blue cells overexpressing human TLR7, SEAP reporter, gardiquimod 7.5 μM; read-out: TLR7 IC50
# T2 construct: host or cells: HEK-Blue cells
# T2 sequence (Q9NYK1 27-1049): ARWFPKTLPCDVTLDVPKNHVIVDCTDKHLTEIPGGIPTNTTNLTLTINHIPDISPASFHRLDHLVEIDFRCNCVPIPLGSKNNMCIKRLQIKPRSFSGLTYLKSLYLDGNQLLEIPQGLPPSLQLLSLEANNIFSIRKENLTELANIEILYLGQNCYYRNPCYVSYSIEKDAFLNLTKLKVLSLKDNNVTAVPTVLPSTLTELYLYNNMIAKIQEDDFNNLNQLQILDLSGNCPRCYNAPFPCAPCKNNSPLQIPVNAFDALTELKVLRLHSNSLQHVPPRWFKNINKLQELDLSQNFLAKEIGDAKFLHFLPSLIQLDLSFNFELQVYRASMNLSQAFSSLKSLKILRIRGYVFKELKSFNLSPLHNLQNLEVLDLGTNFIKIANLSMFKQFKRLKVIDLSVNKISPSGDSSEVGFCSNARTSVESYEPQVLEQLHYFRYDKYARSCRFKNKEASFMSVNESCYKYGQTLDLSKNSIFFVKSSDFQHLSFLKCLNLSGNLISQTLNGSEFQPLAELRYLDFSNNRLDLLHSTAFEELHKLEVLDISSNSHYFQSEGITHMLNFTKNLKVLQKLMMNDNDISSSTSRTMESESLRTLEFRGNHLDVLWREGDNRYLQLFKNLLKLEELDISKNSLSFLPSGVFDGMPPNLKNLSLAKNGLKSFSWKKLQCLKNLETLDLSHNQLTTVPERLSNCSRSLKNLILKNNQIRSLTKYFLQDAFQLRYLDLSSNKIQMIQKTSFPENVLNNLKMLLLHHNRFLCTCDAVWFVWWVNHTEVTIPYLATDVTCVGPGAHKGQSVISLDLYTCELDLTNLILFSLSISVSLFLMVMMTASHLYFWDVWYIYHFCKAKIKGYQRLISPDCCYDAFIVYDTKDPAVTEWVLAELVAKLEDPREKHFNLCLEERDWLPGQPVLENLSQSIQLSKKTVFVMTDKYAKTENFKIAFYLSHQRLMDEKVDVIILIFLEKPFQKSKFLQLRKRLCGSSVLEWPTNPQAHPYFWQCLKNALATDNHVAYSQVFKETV
# Outline: as §1
# [3] = biological target: T3, human TLR9 (Homo sapiens, UniProt Q9NR96); assay: TLR9 inhibition reporter assay (HEK-Blue cells, SEAP reporter, ODN2006 stimulation); details: HEK-Blue cells overexpressing human TLR9, SEAP reporter, ODN2006 5 nM
# T3 construct: host or cells: HEK-Blue cells
# T3 sequence (Q9NR96 26-1032): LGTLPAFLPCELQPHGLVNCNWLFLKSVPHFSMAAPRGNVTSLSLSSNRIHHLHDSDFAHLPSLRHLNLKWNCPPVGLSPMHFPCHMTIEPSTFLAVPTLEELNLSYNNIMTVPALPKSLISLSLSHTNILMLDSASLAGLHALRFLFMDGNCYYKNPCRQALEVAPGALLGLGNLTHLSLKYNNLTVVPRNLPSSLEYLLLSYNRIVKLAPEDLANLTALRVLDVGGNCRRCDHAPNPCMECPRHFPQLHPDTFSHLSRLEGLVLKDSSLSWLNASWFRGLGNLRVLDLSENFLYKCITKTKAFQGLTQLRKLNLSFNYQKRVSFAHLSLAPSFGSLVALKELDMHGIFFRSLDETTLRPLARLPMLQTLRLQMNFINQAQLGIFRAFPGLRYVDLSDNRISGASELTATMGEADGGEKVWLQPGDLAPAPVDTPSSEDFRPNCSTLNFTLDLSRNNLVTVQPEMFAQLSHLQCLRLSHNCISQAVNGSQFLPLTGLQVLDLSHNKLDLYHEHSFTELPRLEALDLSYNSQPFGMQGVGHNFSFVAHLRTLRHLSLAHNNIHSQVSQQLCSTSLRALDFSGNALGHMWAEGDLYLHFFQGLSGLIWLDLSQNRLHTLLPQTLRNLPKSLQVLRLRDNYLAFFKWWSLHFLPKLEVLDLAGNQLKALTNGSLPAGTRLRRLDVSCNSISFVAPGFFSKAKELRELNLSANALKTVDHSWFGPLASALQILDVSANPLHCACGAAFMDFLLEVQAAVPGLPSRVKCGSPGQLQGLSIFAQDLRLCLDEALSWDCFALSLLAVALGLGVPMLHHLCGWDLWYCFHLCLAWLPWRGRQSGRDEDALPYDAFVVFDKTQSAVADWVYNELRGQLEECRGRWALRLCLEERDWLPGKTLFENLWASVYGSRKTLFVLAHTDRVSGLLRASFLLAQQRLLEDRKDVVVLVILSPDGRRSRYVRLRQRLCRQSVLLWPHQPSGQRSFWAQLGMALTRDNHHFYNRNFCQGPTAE
# Outline: as §1
pIC50 [1],pIC50 [2],pIC50 [3],SMILES
8.82,8.08,4.94,"Cc1c(-c2[nH]c3sc(N4C[C@@H](C)N(C(C)C)C[C@@H]4C)nc3c2C(C)C)cn2ncnc2c1C [Example 330, 5-(7,8-dimethyl-[1,2,4]triazolo[1,5-a]pyridin-6-yl)-6-isopropyl-2-((2S,5R)-4-isopropyl-2,5-dimethylpiperazin-1-yl)-4H-pyrrolo[3,2-d] thiazole]"
8.48,7.92,5.03,"Cc1cc2ncnn2cc1-c1[nH]c2sc(C3CCC(N4CCCC4)CC3)nc2c1C(C)C (single isomer, unassigned) [Example 154, 6-isopropyl-5-(7-methyl-[1,2,4]triazolo[1,5-a]pyridin-6-yl)-2-(4-(pyrrolidin-1-yl)cyclohexyl)-4H-pyrrolo[3,2-d]thiazole]"
8.50,8.38,5.11,"COc1cc(-c2[nH]c3sc(C4CCN(CC(C)(C)O)CC4)nc3c2C(C)C)cn2ncnc12 [Example 15, 1-(4-(6-isopropyl-5-(8-methoxy-[1,2,4]triazolo[1,5-a]pyridin-6-yl)-4H-pyrrolo[3,2-d]thiazol-2-yl)piperidin-1-yl)-2-methylpropan-2-ol]"
8.79,9.23,5.54,"COc1cc(-c2[nH]c3sc(C4CCC(NC(C)C)CC4)nc3c2C(C)C)cn2ncnc12 (single isomer, unassigned) [Example 78, N-isopropyl-4-(6-isopropyl-5-(8-methoxy-[1,2,4]triazolo[1,5-a]pyridin-6-yl)-4H-pyrrolo[3,2-d]thiazol-2-yl)cyclohexan-1-amine]"
8.12,8.08,4.37,"Cc1c(-c2[nH]c3sc(N4C[C@@H](C)N(CCS(C)(=O)=O)C[C@@H]4C)nc3c2C(C)C)cn2ncnc2c1C [Example 337, 2-((2S,5R)-2,5-dimethyl-4-(2-(methylsulfonyl)ethyl)piperazin-1-yl)-5-(7,8-dimethyl-[1,2,4]triazolo[1,5-a]pyridin-6-yl)-6-isopropyl-4H-pyrrolo[3,2-d]thiazole]"
7.41,8.17,4.65,"Cc1cc(-c2[nH]c3sc(C4CCC(NCC5(C)COC5)CC4)nc3c2C(C)C)cn2ncnc12 (single isomer, unassigned) [Example 135, 4-(6-isopropyl-5-(8-methyl-[1,2,4]triazolo[1,5-a]pyridin-6-yl)-4H-pyrrolo[3,2-d]thiazol-2-yl)-N-((3-methyloxetan-3-yl)methyl)cyclohexan-1-amine]"
8.82,8.31,4.36,"Cc1c(-c2[nH]c3sc(C4CCC(NC5CCS(=O)(=O)C5)CC4)nc3c2C(C)C)cn2ncnc2c1C (racemic) [Example 230, 3-((4-(5-(7,8-dimethyl-[1,2,4]triazolo[1,5-a]pyridin-6-yl)-6-isopropyl-4H-pyrrolo[3,2-d]thiazol-2-yl)cyclohexyl)amino)tetrahydrothiophene 1,1-dioxide]"
8.37,7.98,5.06,"COC(C)(C)CNC1CCC(c2nc3c(C(C)C)c(-c4cn5ncnc5c(C)c4C)[nH]c3s2)CC1 (single isomer, unassigned) [Example 187, 4-(5-(7,8-dimethyl-[1,2,4]triazolo[1,5-a]pyridin-6-yl)-6-isopropyl-4H-pyrrolo[3,2-d]thiazol-2-yl)-N-(2-methoxy-2-methylpropyl)cyclohexan-1-amine]"
8.55,8.43,5.21,"Cc1c(-c2[nH]c3sc(C4CCC(N5CC6(CCOCC6)C5)CC4)nc3c2C(C)C)cn2ncnc2c1C (single isomer, unassigned) [Example 240, 2-(4-(5-(7,8-dimethyl-[1,2,4]triazolo[1,5-a]pyridin-6-yl)-6-isopropyl-4H-pyrrolo[3,2-d]thiazol-2-yl)cyclohexyl)-7-oxa-2-azaspiro[3.5]nonane]"
9.32,9.01,5.04,"Cc1c(-c2[nH]c3sc(C4CCN(C)CC4)nc3c2C(C)C)cn2ncnc2c1C [Example 49, 5-(7,8-dimethyl-[1,2,4]triazolo[1,5-a]pyridin-6-yl)-6-isopropyl-2-(1-methylpiperidin-4-yl)-4H-pyrrolo[3,2-d] thiazole]"
8.91,8.55,4.83,"CC(C)c1c(-c2cn(C)c3ncccc23)[nH]c2sc(C3CCC(NCC4(C)COC4)CC3)nc12 (single isomer, unassigned) [Example 172, 4-(6-isopropyl-5-(1-methyl-1H-pyrrolo[2,3-b]pyridin-3-yl)-4H-pyrrolo[3,2-d]thiazol-2-yl)-N-((3-methyloxetan-3-yl)methyl)cyclohexan-1-amine]"
8.61,8.77,5.17,"CC(C)c1c(-c2cn(C)c3ncccc23)[nH]c2sc(C3CCC(NC4COC4)CC3)nc12 (single isomer, unassigned) [Example 178, N-(4-(6-isopropyl-5-(1-methyl-1H-pyrrolo[2,3-b]pyridin-3-yl)-4H-pyrrolo[3,2-d]thiazol-2-yl)cyclohexyl)oxetan-3-amine]"
